Experimental data as given in publication PMC5282889 (Bioorganic & medicinal chemistry letters, 2016).

Key:
[1] = molecular target: AChE (Homo sapiens, UniProt P22303); experiment: biochemical; settings: read-out: AChE inhibition (%)
[2] = molecular target: BuChE (Homo sapiens, UniProt P06276); experiment: Ellman assay, BuChE inhibition; assay type: biochemical; settings: read-out: BuChE inhibition (%), tested at 10 μM concentration
[3] = molecular target: Aβ (Homo sapiens, UniProt P05067); experiment: Aβ fibrillogenesis, Thioflavin-T; assay type: biochemical; settings: for Aβ fibril inhibition (%): Aβ:inhibitor = 1:1 ratio at 100 μM Aβ concentration
[4] = molecular target: Aβ-peptide (Homo sapiens, UniProt P05067); experiment: High resolution mass spectrometry of inhibitor-Aβ complex formation; assay type: binding; settings: Aβ-peptide-14 mixture (30 μM to 150 μM); 1:1 and 1:2 complexes observed
Sequence of Aβ-peptide (P05067 672-711 limits assumed): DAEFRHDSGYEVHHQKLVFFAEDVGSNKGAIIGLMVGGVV

Sequence of Aβ (P05067 672-711 limits assumed): as above
Sequence of AChE (P22303 32-614): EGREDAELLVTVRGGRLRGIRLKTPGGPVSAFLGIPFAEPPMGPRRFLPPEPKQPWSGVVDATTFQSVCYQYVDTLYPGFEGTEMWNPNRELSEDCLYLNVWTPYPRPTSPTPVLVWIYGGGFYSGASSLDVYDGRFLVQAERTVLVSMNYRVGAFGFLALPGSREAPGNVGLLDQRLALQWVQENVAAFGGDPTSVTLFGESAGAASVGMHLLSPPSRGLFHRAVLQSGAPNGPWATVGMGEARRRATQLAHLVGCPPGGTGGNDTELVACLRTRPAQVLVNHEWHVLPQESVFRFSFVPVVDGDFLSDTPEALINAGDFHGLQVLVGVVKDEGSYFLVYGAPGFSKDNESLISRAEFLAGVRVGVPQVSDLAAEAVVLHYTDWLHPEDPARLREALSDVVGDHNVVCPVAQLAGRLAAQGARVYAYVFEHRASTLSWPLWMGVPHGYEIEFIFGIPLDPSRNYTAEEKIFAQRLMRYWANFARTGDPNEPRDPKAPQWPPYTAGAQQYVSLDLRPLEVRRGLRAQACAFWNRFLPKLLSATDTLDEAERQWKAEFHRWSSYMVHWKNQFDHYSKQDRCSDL
Sequence of BuChE (P06276 29-602): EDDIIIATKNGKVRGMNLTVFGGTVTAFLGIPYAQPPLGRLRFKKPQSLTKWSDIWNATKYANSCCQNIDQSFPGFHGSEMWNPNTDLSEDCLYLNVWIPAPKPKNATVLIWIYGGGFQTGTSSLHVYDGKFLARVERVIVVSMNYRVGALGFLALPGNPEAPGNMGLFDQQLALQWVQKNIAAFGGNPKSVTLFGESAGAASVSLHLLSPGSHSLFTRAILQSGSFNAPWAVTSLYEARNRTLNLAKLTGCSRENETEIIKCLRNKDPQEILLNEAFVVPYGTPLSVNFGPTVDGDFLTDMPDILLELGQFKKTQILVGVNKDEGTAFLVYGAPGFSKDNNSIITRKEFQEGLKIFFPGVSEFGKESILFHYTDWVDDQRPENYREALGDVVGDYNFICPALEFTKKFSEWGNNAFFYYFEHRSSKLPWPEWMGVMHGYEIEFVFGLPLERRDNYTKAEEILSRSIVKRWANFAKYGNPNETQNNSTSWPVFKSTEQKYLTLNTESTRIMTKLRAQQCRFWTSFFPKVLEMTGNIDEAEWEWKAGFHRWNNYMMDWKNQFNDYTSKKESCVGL

Compound | inhibition at 2 µM [1] | inhibition at 10 µM [2] | Aβ fibril inhibition (%) [3] | Complex formation with Aβ peptide (HR-MS) [4] | EC50 [3]
c1ccc(-c2nccc3c2[nH]c2ccccc23)cc1 [Compound 1] | -12% | – | – | – | –
COc1ccc2[nH]c3c(-c4ccc(C)cc4)nccc3c2c1 [Compound 4] | -15% | – | – | – | –
Fc1ccc(-c2nccc3c2[nH]c2ccccc23)cc1 [Compound 6] | – | > 80% | 39% | – | –
c1ccc2c(c1)[nH]c1c(C3CCCCC3)nccc12 [Compound 13] | – | – | −12% | – | –
c1ccc2c(-c3nccc4c3[nH]c3ccccc34)cccc2c1 [Compound 14] | -11% | > 80% | – | forms a complex with the peptide | ~110 µM
